{"source": "ChEMBL document CHEMBL1154899", "about": "“Synthesis and biological evaluation of caffeic acid 3,4-dihydroxyphenethyl ester” (J Nat Prod, 2010)", "type_in_all_cases": "functional", "key": {"MCF7 [1]": {"test_system": "MCF7", "assay": "Antiproliferative activity against human MCF7 cells by SRB assay"}, "TK-10": {"test_system": "TK-10", "assay": "Antiproliferative activity against human TK10 cells assessed as cell growth at 50 uM by SRB assay", "settings": "read-out: Activity"}, "EKVX [2]": {"test_system": "EKVX", "assay": "Antiproliferative activity against human EKVX cells assessed as cell growth at 0.5 uM by SRB assay", "settings": "read-out: Activity"}, "SK-MEL-5": {"test_system": "SK-MEL-5", "assay": "Antiproliferative activity against human SK-MEL-5 cells assessed as cell growth at 0.5 uM by SRB assay", "settings": "read-out: Activity"}, "MDA-MB-231": {"test_system": "MDA-MB-231", "assay": "Antiproliferative activity against human MDA-MB-231 cells assessed as cell growth at 5 uM by SRB assay", "settings": "read-out: Activity"}, "EKVX [3]": {"test_system": "EKVX", "assay": "Antiproliferative activity against human EKVX cells assessed as cell growth at 50 uM by SRB assay", "settings": "read-out: Activity"}, "786-0": {"test_system": "786-0", "assay": "Antiproliferative activity against human 786-0 cells assessed as cell growth at 50 uM by SRB assay", "settings": "read-out: Activity"}, "MCF7 [4]": {"test_system": "MCF7", "assay": "Antiproliferative activity against human MCF7 cells assessed as cell growth at 50 uM by SRB assay", "settings": "read-out: Activity"}, "[5]": {"assay": "Antiproliferative activity against human […] cells by SRB assay"}, "NCI-H23": {"test_system": "NCI-H23", "assay": "Antiproliferative activity against human NCI-H23 cells by SRB assay"}, "SNB-75": {"test_system": "SNB-75", "assay": "Antiproliferative activity against human SNB75 cells assessed as cell growth at 50 uM by SRB assay", "settings": "read-out: Activity"}, "BT-549": {"test_system": "BT-549", "assay": "Antiproliferative activity against human BT549 cells assessed as cell growth at 5 uM by SRB assay", "settings": "read-out: Activity"}, "A549": {"test_system": "A549", "assay": "Antiproliferative activity against human A549 cells by SRB assay"}, "HCC 2998": {"test_system": "HCC 2998", "assay": "Antiproliferative activity against human HCC2998 cells assessed as cell growth at 500 uM by SRB assay", "settings": "read-out: Activity"}, "CAKI-1": {"test_system": "CAKI-1", "assay": "Antiproliferative activity against human Caki1 cells assessed as cell growth at 0.5 uM by SRB assay", "settings": "read-out: Activity"}, "NCI-H460": {"test_system": "NCI-H460", "assay": "Antiproliferative activity against human NCI-H460 cells assessed as cell growth at 500 uM by SRB assay", "settings": "read-out: Activity"}, "OVCAR-5": {"test_system": "OVCAR-5", "assay": "Antiproliferative activity against human OVCAR5 cells at 5 uM by SRB assay"}, "[6]": {"settings": "read-out: LC50 (the source's name)"}, "[7]": {"settings": "read-out: pLC50 (the source's name) (converted)"}}}
{"smiles": "O=C(/C=C/c1ccc(O)c(O)c1)OCCc1ccc(O)c(O)c1", "values": [{"measurement": "GI50", "setting": "MCF7 [1]; read-out: GI50", "result": 3.86, "unit": "µM"}, {"measurement": "CC50", "setting": "MCF7 [1]; [6]", "result": "> 50", "unit": "µM"}, {"measurement": "TGI", "setting": "MCF7 [1]; read-out: TGI", "result": "> 50", "unit": "µM"}, {"measurement": "GI50", "setting": "MCF7 [1]; read-out: pGI50 (converted)", "result": 3.89, "unit": "µM"}, {"measurement": "CC50", "setting": "MCF7 [1]; [7]", "result": "> 50.1", "unit": "µM"}, {"measurement": "TGI", "setting": "MCF7 [1]; read-out: pTGI", "result": "> 50.1", "unit": "µM"}, {"measurement": "growth at 50 µM", "setting": "TK-10", "result": 94, "unit": "%"}, {"measurement": "growth at 0.5 µM", "setting": "EKVX [2]", "result": 88, "unit": "%"}, {"measurement": "growth at 0.5 µM", "setting": "SK-MEL-5", "result": 97, "unit": "%"}, {"measurement": "growth at 5 µM", "setting": "MDA-MB-231", "result": 108, "unit": "%"}, {"measurement": "growth at 50 µM", "setting": "EKVX [3]", "result": 88, "unit": "%"}, {"measurement": "growth at 50 µM", "setting": "786-0", "result": 94, "unit": "%"}, {"measurement": "growth at 50 µM", "setting": "MCF7 [4]", "result": 92, "unit": "%"}, {"measurement": "GI50", "setting": "[5]; read-out: GI50", "result": 0.63, "unit": "µM"}, {"measurement": "CC50", "setting": "[5]; [6]", "result": "> 50", "unit": "µM"}, {"measurement": "TGI", "setting": "[5]; read-out: TGI", "result": 8.48, "unit": "µM"}, {"measurement": "GI50", "setting": "[5]; read-out: pGI50 (converted)", "result": 0.631, "unit": "µM"}, {"measurement": "CC50", "setting": "[5]; [7]", "result": "> 50.1", "unit": "µM"}, {"measurement": "TGI", "setting": "[5]; read-out: pTGI (converted)", "result": 8.51, "unit": "µM"}, {"measurement": "GI50", "setting": "NCI-H23; read-out: GI50", "result": 11.6, "unit": "µM"}, {"measurement": "CC50", "setting": "NCI-H23; [6]", "result": "> 50", "unit": "µM"}, {"measurement": "TGI", "setting": "NCI-H23; read-out: TGI", "result": "> 50", "unit": "µM"}, {"measurement": "GI50", "setting": "NCI-H23; read-out: pGI50 (converted)", "result": 11.5, "unit": "µM"}, {"measurement": "CC50", "setting": "NCI-H23; [7]", "result": "> 50.1", "unit": "µM"}, {"measurement": "TGI", "setting": "NCI-H23; read-out: pTGI", "result": "> 50.1", "unit": "µM"}, {"measurement": "growth at 50 µM", "setting": "SNB-75", "result": 72, "unit": "%"}, {"measurement": "growth at 5 µM", "setting": "BT-549", "result": 100, "unit": "%"}, {"measurement": "GI50", "setting": "A549; read-out: GI50", "result": 17.7, "unit": "µM"}, {"measurement": "CC50", "setting": "A549; [6]", "result": "> 50", "unit": "µM"}, {"measurement": "TGI", "setting": "A549; read-out: TGI", "result": "> 50", "unit": "µM"}, {"measurement": "GI50", "setting": "A549; read-out: pGI50 (converted)", "result": 17.8, "unit": "µM"}, {"measurement": "CC50", "setting": "A549; [7]", "result": "> 50.1", "unit": "µM"}, {"measurement": "TGI", "setting": "A549; read-out: pTGI", "result": "> 50.1", "unit": "µM"}, {"measurement": "growth at 500 µM", "setting": "HCC 2998", "result": 80, "unit": "%"}, {"measurement": "growth at 0.5 µM", "setting": "CAKI-1", "result": 82, "unit": "%"}, {"measurement": "growth at 500 µM", "setting": "NCI-H460", "result": 94, "unit": "%"}, {"measurement": "Activity", "setting": "OVCAR-5", "result": 89, "unit": "%"}]}
